Laboratory results from ChEMBL document CHEMBL5518235, “Identification of Novel Series of Potent and Selective Relaxin Family Peptide Receptor 1 (RXFP1) Agonists” (J Med Chem, 2024).

Assays:
[1] = Cytotoxicity against human THP-1 cells assessed as reduction of cell viability incubated for 48 hrs by resazurin reduction assay; assay type: toxicity, cell-based
[2] = target: Bile salt export pump (Homo sapiens, UniProt O95342); test: Inhibition of BSEP (unknown origin) by membrane vesicle assay; assay type: toxicity
Sequence of Bile salt export pump (O95342 whole entry): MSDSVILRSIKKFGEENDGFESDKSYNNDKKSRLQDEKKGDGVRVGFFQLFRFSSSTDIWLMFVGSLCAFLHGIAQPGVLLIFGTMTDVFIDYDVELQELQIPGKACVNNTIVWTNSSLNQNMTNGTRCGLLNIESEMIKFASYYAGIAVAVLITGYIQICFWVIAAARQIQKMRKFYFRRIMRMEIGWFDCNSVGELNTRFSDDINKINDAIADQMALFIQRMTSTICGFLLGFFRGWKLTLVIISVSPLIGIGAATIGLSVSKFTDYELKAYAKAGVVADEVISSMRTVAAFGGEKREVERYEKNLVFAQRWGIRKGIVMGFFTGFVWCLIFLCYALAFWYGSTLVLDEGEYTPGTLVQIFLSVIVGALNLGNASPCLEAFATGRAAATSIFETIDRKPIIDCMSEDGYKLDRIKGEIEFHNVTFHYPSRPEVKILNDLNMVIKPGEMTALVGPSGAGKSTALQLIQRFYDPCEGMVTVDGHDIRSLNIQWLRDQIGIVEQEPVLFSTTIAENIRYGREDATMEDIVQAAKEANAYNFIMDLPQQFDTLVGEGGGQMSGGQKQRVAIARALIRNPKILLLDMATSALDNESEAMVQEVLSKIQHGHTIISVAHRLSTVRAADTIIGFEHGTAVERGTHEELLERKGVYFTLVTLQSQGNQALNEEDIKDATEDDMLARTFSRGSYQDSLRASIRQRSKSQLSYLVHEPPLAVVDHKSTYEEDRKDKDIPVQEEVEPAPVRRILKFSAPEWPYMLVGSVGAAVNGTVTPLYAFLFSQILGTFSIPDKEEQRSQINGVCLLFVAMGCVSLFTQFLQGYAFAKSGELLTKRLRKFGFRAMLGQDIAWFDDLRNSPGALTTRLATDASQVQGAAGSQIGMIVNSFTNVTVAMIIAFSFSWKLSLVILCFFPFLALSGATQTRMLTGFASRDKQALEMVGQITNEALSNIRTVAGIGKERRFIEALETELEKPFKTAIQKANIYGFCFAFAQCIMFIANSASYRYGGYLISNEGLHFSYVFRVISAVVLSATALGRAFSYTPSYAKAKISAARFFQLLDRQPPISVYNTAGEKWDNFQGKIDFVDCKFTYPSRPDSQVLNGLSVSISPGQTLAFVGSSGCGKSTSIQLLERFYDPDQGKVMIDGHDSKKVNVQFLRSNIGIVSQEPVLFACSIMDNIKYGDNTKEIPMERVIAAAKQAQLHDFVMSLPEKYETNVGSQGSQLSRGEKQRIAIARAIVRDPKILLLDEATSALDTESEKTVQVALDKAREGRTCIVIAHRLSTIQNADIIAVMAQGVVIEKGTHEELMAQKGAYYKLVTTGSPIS

[3] = target: Voltage-gated inwardly rectifying potassium channel KCNH2 (Homo sapiens, UniProt Q12809); test: Inhibition of human ERG by automated electrophysiology recording; assay type: toxicity
Sequence of Voltage-gated inwardly rectifying potassium channel KCNH2 (Q12809 whole entry): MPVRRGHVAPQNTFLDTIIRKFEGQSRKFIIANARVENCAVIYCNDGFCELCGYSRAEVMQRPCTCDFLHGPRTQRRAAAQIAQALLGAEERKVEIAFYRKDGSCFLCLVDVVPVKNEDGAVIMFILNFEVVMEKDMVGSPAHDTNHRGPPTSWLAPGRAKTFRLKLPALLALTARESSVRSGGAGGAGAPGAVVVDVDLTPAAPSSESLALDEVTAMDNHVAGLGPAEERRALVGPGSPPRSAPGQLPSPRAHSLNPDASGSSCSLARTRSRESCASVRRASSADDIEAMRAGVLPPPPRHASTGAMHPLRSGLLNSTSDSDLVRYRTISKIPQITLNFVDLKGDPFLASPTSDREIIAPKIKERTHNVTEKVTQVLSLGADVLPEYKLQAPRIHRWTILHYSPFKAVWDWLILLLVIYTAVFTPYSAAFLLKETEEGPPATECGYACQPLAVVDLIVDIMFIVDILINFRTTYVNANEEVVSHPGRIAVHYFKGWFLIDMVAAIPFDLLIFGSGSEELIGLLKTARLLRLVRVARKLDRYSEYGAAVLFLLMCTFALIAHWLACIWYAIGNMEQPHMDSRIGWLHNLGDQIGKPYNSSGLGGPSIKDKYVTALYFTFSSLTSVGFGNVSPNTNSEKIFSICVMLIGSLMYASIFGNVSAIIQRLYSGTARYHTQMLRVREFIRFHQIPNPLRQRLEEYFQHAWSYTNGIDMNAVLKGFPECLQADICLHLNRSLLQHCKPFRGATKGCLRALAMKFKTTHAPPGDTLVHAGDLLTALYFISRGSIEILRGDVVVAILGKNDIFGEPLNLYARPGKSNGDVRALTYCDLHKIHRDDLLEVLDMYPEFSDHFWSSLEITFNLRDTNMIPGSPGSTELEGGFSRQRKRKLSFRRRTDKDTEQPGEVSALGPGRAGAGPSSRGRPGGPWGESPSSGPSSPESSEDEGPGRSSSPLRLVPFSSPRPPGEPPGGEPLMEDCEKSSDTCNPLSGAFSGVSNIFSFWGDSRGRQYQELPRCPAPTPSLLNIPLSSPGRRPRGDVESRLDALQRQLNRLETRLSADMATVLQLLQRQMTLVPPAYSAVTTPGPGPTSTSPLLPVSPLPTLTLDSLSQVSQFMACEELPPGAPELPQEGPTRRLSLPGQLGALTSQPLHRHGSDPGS

[4] = system: IKs channel; test: Inhibition of human IKS channel by automated electrophysiology recording; assay type: toxicity
[5] = target: T1, Leucine-rich repeat-containing G-protein coupled receptor 4 (Homo sapiens, UniProt Q9BXB1); test: Agonist activity at LGR4 (unknown origin) by arrestin technology based assay
T1 sequence (Q9BXB1 whole entry): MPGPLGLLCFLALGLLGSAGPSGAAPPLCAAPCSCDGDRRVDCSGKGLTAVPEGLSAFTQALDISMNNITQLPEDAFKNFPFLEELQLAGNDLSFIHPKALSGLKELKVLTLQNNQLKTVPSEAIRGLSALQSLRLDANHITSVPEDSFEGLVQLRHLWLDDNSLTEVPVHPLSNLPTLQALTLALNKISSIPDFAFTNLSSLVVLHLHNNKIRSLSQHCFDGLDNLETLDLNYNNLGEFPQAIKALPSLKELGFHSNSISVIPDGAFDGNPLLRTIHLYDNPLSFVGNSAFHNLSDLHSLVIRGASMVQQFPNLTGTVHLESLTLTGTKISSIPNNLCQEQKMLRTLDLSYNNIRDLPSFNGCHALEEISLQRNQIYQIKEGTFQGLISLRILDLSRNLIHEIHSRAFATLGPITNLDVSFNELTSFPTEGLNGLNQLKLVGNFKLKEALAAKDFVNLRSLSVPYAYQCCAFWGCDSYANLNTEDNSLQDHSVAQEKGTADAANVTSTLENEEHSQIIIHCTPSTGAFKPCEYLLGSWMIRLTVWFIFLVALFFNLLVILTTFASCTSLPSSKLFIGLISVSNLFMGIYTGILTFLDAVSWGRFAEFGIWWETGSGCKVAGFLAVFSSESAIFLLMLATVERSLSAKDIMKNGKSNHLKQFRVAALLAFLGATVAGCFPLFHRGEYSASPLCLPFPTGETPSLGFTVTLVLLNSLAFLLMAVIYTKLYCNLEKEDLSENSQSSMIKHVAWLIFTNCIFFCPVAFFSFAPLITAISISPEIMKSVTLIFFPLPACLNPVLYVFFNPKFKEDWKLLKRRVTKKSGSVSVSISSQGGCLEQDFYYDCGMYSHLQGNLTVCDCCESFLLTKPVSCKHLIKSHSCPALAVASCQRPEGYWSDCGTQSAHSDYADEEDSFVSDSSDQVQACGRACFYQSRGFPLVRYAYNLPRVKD

[6] = target: Lutropin-choriogonadotropic hormone receptor (Homo sapiens, UniProt P22888); test: Agonist activity at LSHR (unknown origin) by arrestin technology based assay; assay type: functional
Sequence of Lutropin-choriogonadotropic hormone receptor (P22888 whole entry): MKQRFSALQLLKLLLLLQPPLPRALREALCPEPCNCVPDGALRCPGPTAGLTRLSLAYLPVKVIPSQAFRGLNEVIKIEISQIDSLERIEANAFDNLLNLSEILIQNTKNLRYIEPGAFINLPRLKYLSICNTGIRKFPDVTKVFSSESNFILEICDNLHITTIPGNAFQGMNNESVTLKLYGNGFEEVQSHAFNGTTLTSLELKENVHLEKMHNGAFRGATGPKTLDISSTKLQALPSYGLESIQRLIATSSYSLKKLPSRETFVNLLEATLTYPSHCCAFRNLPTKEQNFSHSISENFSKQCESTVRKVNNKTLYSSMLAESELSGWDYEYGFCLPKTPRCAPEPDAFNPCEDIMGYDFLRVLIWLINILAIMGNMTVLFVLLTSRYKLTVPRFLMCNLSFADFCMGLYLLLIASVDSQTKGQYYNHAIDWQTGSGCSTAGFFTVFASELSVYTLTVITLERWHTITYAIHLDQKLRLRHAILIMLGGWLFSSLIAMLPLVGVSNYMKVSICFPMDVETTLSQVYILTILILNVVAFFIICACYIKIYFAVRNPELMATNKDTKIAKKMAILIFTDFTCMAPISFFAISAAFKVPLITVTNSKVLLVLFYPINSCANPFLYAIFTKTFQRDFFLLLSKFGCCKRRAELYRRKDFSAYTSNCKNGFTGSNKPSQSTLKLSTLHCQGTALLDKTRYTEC

[7] = target: T2, Relaxin receptor 1 (Rattus norvegicus) (UniProt Q6R6I6); test: Agonist activity at rat RXFP1 expressed in T-Rex-CHO-K1 cells assessed as stimulation of cAMP production by measuring maximal efficacy incubated for 60 mins by HTRF assay relative to control; assay type: functional, cell-based; details: filed as agonist
T2 sequence (whole entry): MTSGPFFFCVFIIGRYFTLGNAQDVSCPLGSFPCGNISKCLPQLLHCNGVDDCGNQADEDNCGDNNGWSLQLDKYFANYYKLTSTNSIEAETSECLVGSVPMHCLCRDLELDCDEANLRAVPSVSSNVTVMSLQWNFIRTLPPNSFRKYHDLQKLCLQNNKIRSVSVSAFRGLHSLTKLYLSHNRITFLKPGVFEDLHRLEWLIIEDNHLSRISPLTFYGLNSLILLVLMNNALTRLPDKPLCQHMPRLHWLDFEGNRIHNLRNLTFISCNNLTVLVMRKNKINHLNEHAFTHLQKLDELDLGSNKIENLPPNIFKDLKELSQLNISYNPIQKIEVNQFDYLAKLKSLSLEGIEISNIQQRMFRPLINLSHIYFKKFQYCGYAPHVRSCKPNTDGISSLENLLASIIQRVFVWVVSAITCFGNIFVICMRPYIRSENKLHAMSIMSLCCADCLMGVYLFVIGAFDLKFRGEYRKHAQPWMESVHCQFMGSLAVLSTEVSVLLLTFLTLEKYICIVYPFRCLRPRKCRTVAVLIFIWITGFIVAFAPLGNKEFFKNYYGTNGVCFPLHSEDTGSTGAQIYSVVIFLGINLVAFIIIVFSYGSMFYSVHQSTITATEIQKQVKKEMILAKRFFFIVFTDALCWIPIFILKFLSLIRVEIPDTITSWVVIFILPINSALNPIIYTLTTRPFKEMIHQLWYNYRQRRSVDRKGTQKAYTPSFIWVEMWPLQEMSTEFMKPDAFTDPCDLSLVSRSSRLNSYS

[8] = Clearance in Han Wistar rat at 0.73 micromol/kg, iv by LC-MS/MS analysis; assay type: ADME, organism-based; details: in vivo, dose 0.73 µmol/kg
[9] = target: T2, Relaxin receptor 1 (Rattus norvegicus); test: Agonist activity at rat RXFP1 expressed in T-Rex-CHO-K1 cells assessed as stimulation of cAMP production by measuring unbound concentration incubated for 60 mins by HTRF assay; assay type: functional, cell-based; details: filed as agonist
[10] = Unbound Cmax in Sprague-Dawley rat at 1.5 mg/kg, iv administered via bolus followed by 9.0 mg/kg, iv administered via infusion for 3 hrs and measured 1 hrs post washout by LC-MS/MS analysis; assay type: ADME, organism-based; details: in vivo
[11] = Cytotoxicity against human HepG2 cells cultured under galactose condition assessed as reduction in cell viability; assay type: toxicity, cell-based

EC50 [5]: 16 µM
EC50 [6]: 46 µM
Emax [7]: 139%
clearance [8]: 38 mL/min/kg
fEC50 [9]: 17 nM
fCmax [10]: 10 nM
Structure (SMILES): COc1cc(F)c(O[C@H]2CC[C@@](C)(C(=O)O)CC2)cc1C(=O)N[C@@H]1[C@H]2CC[C@H](C2)[C@@H]1C(=O)Nc1ccc(F)c(S(F)(F)(F)(F)F)c1
IC50 at 48 h [1]: 15 µM
IC50 [2]: 23 µM
IC50 [3]: > 39 µM
IC50 [4]: > 33 µM
IC50 [11]: 37 µM
